Results published in article PMC2951497 (Journal of medicinal chemistry, 2010).
pKi: −log10 of the molar value. Entries after “also recorded” stand apart in the source; their conditions may differ.

Legend:
[1] = molecular target: 5-HT4 receptors (Homo sapiens, UniProt Q13639); experiment: GloSensor L9 assay for cAMP response; assay type: cell-based; details: agonist/inverse agonist assay; Ag. = agonist; Inv. Ag. = Inverse agonist
[2] = molecular target: human recombinant 5-HT4 receptors (h5-HT4) (Homo sapiens, UniProt Q13639); experiment: NIMH-PDSP binding to human recombinant 5-HT4 receptors, [3H]GR 113808; details: for h5-HT4 Ki: h5-HT4 receptors expressed in HEK293T cells, averages of triplicate measurements
Sequence of human recombinant 5-HT4 receptors (h5-HT4) (Q13639 whole entry): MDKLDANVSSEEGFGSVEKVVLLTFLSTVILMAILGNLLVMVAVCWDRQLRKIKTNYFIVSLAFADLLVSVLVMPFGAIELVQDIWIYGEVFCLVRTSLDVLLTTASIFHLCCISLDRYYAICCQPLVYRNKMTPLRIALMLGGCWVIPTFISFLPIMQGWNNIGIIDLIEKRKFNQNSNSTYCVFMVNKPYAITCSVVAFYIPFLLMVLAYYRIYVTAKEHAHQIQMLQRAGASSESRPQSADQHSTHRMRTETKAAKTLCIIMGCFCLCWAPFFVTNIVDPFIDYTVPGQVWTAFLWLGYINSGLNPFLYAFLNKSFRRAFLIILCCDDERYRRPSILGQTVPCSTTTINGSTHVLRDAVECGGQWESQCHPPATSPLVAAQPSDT

[3] = molecular target: h5-HT1E (Homo sapiens, UniProt P28566); experiment: NIMH-PDSP binding screen
Sequence of h5-HT1E (P28566 whole entry): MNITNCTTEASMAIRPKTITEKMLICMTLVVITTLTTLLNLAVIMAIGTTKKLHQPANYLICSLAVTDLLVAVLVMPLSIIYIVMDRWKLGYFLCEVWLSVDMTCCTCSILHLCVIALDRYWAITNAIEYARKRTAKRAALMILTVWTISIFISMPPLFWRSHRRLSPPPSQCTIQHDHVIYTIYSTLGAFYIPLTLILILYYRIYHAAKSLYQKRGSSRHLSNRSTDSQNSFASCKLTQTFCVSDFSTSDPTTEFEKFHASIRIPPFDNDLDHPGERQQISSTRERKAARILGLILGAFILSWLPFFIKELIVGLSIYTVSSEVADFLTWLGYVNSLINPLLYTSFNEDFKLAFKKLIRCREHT

[4] = molecular target: BZP (rat brain site); experiment: NIMH-PDSP binding screen; details: read-out: Binding affinities (Ki) BZP (rat brain site)
[5] = molecular target: hGABAA; experiment: NIMH-PDSP binding screen; design: species or system human; details: read-out: Binding affinities (Ki) hGABAA

Sequence of 5-HT4 receptors (Q13639 whole entry): as the sequence (Q13639 whole entry) above

SMILES | Efficacy [1] | h5-HT4 Ki [2] | pKi [3] | pKi [4] | pKi [5] | selectivity against the full range of tested receptors and binding sites ([2]; 5-HT4 receptor selectivity)
CCCCN1CCC(COC(=O)c2cc(I)c(N)c3c2OCCO3)CC1 [Compound 1, (1-Butylpiperidin-4-yl)methyl 8-amino-7-iodo-2,3-dihydrobenzo[b][1,4]dioxine-5-carboxylate, reference compound] | inverse agonists |  |  |  |  | 
CCCCN1CCC(COC(=O)c2ccc(N)c3c2OCCO3)CC1 [Compound 4, reference compound] | antagonists (inactive) |  |  |  |  | 
CCCCN1CCC(COC(=O)c2cc(C)c(N)c3c2OCCO3)CC1 [Compound 7, (1-Butylpiperidin-4-yl)methyl 8-amino-7-methyl-2,3-dihydrobenzo[b][1,4]dioxine-5-carboxylate] | inactive |  |  |  |  | 
CCCCN1CCC(COC(=O)c2cc(Cl)c(NC)c3c2OCCO3)CC1 [Compound 8, (1-Butylpiperidin-4-yl)methyl 7-chloro-8-(methylamino)-2,3-dihydrobenzo[b][1,4]dioxine-5-carboxylate] | inverse agonists | low nanomolar; also recorded: binding affinity comparable to that of 1 | < 5.00 | < 5.00 | < 5.00 | 
CCCCN1CCC(COC(=O)c2cc(Br)c(NC)c3c2OCCO3)CC1 [Compound 9, (1-Butylpiperidin-4-yl)methyl 7-bromo-8-(methylamino)-2,3-dihydrobenzo[b][1,4]dioxine-5-carboxylate] |  | low nanomolar affinity |  |  |  | 
CCCCN1CCC(COC(=O)c2ccc(N)cc2OC)CC1 [Compound 12, (1-Butylpiperidin-4-yl)methyl 4-amino-2-methoxybenzoate] | potent full agonist |  |  |  |  | 
CCCCN1CCC(COC(=O)c2ccc(N)c(OC)c2)CC1 [Compound 13, (1-Butylpiperidin-4-yl)methyl 4-amino-3-methoxybenzoate] | antagonists (inactive) | low nanomolar; also recorded: affinity comparable to that of 1 |  | < 5.00 | < 5.00 | greater than 60 fold
CCCCN1CCC(COC(=O)c2cc(F)c(N)c3c2OCCO3)CC1 [Compound 17, (1-Butylpiperidin-4-yl)methyl 8-amino-7-fluoro-2,3-dihydrobenzo[b][1,4]dioxine-5-carboxylate] | inverse agonists | low nanomolar |  |  |  | 
